Experimental data taken from patent US10494332B2, “Protein tyrosine phosphatases or SHP2 inhibitors and uses thereof” (Indiana University Research and Technology Corporation, priority 2015, dated 2019).

target: T1, mPTPB (Mycobacterium tuberculosis, UniProt I6WXK4); assay: biochemical; conditions: Biochemical potency against target (Ic50, nM) mPTPB
T1 sequence (I6WXK4 1-276): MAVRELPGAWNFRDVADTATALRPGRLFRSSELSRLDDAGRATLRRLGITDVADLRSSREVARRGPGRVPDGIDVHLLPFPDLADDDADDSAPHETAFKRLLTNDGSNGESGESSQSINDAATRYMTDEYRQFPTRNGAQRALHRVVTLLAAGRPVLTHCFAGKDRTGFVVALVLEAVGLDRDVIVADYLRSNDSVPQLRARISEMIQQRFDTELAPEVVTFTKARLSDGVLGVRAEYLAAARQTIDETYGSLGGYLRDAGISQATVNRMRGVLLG

Compound	IC50 [nM]
Cc1c(Br)cc(NC(=O)CS(=O)(=O)O)cc1Br	> 3200
O=C(C(c1ccccc1)S(=O)(=O)O)N1CCC(Cc2ccccc2)CC1 (stereo not drawn) [Compound L319N46]	60
O=C(C(c1ccccc1)S(=O)(=O)O)N1CCC(c2ccc(Cl)c(Cl)c2)CC1 (stereo not drawn) [Compound L319N47]	9
O=C(C(c1ccccc1)S(=O)(=O)O)N1CCCC2CCCCC21 (stereo not drawn) [Compound L319N53]	20

same assay, conditions: IC50 mPTPB

Compound	IC50 [nM]
Cc1c(Br)cc(NC(=O)CS(=O)(=O)O)cc1Br	3100
O=C(CS(=O)(=O)O)Nc1cnc2ccccc2c1	55000

target: T2, HePTP (Homo sapiens, UniProt P35236); assay: PTP inhibition assay (pNPP); assay type: biochemical; conditions: pNPP at Km, pH 7.0, 25° C.
T2 sequence (P35236 1-360): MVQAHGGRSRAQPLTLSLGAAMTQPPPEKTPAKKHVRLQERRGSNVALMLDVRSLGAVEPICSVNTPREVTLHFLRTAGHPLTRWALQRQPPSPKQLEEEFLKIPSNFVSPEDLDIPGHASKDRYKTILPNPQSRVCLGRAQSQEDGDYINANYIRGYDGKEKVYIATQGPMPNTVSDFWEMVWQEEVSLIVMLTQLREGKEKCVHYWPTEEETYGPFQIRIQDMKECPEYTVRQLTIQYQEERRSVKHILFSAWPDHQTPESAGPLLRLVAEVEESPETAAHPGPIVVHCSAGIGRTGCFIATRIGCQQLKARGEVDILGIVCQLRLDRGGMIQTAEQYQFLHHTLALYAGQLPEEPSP

Compound	IC50 [µM]
Cc1c(Br)cc(NC(=O)CS(=O)(=O)O)cc1Br	> 100
O=C(CS(=O)(=O)O)Nc1cnc2ccccc2c1	> 100
O=C(C(c1ccccc1)S(=O)(=O)O)N1CCC(Cc2ccccc2)CC1 (stereo not drawn) [Compound L319N46]	> 200
O=C(C(c1ccccc1)S(=O)(=O)O)N1CCC(c2ccc(Cl)c(Cl)c2)CC1 (stereo not drawn) [Compound L319N47]	77
O=C(C(c1ccccc1)S(=O)(=O)O)N1CCCC2CCCCC21 (stereo not drawn) [Compound L319N53]	> 200

target: T3, PTPH1 (Homo sapiens, UniProt P26045); assay: PTP inhibition assay (pNPP); assay type: biochemical; conditions: not given
T3 sequence (P26045 1-913): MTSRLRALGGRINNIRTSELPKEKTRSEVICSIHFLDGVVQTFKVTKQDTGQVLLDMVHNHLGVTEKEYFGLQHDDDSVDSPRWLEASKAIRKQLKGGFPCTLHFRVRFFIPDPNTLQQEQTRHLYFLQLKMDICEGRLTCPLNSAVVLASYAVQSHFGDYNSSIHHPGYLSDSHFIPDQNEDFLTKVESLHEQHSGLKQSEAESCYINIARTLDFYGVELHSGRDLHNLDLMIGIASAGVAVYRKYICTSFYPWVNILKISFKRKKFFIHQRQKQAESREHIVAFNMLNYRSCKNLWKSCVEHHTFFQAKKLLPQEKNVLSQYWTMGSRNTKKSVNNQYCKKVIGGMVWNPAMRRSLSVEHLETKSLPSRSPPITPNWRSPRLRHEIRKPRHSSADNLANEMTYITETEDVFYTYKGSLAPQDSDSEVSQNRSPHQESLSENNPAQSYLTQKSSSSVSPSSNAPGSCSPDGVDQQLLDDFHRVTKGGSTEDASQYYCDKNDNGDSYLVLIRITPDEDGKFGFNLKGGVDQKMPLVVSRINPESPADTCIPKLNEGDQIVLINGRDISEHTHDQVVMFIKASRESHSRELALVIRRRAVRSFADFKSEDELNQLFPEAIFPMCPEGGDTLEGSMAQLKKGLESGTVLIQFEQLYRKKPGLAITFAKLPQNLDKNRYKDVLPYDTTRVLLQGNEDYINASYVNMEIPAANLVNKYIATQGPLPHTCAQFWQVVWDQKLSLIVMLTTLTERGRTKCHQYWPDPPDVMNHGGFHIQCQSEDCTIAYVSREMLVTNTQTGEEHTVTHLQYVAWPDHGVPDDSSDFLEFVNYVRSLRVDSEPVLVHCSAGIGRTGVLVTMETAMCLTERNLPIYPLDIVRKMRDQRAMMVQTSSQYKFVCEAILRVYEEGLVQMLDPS

Compound	IC50 [µM]
O=C(CS(=O)(=O)O)Nc1cnc2ccccc2c1	> 100
O=C(C(c1ccccc1)S(=O)(=O)O)N1CCC(Cc2ccccc2)CC1 (stereo not drawn) [Compound L319N46]	> 200
O=C(C(c1ccccc1)S(=O)(=O)O)N1CCC(c2ccc(Cl)c(Cl)c2)CC1 (stereo not drawn) [Compound L319N47]	30
O=C(C(c1ccccc1)S(=O)(=O)O)N1CCCC2CCCCC21 (stereo not drawn) [Compound L319N53]	> 200

target: PTPγ (Homo sapiens, UniProt P23470); assay: PTP inhibition assay (pNPP); assay type: biochemical; conditions: not given
Sequence (P23470 20-1445): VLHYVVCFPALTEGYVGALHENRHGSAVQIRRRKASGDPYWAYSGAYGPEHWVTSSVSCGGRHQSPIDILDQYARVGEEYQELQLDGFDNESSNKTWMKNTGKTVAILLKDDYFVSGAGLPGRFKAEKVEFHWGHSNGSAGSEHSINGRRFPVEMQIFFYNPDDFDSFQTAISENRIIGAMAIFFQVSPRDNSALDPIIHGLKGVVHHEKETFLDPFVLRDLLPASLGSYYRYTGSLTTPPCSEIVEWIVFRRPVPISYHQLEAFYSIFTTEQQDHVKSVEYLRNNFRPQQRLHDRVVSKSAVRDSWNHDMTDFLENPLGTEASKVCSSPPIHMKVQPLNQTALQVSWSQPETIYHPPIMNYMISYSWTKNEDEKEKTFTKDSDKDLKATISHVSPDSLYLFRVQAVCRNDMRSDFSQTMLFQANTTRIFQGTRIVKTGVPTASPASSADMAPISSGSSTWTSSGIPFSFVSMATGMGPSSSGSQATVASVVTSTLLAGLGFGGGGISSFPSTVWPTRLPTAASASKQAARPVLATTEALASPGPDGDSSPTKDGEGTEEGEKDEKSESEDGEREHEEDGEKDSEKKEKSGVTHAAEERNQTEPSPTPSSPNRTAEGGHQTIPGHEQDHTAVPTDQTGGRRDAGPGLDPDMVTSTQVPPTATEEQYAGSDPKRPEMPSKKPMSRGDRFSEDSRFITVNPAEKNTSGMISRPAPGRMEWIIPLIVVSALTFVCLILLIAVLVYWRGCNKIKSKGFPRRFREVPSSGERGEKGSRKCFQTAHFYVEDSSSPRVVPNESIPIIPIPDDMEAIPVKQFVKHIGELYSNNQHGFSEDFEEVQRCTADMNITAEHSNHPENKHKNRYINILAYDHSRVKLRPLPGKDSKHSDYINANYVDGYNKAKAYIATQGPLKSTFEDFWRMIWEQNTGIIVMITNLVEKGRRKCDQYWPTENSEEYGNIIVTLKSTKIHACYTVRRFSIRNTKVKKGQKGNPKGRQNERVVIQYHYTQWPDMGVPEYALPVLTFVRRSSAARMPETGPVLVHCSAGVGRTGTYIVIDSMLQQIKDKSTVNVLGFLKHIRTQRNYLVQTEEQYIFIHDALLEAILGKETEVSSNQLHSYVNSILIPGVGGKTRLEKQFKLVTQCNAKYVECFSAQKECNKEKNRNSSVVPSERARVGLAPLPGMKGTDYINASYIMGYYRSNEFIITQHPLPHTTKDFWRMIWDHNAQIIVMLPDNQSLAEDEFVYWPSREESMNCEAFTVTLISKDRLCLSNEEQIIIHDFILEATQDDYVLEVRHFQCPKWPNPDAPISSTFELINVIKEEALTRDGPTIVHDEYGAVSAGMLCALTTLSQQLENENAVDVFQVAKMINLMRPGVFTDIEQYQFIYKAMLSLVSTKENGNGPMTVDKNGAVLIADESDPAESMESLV

Compound	IC50 [µM]
Cc1c(Br)cc(NC(=O)CS(=O)(=O)O)cc1Br	> 100
O=C(CS(=O)(=O)O)Nc1cnc2ccccc2c1	> 100
O=C(C(c1ccccc1)S(=O)(=O)O)N1CCC(Cc2ccccc2)CC1 (stereo not drawn) [Compound L319N46]	> 200
O=C(C(c1ccccc1)S(=O)(=O)O)N1CCC(c2ccc(Cl)c(Cl)c2)CC1 (stereo not drawn) [Compound L319N47]	180
O=C(C(c1ccccc1)S(=O)(=O)O)N1CCCC2CCCCC21 (stereo not drawn) [Compound L319N53]	> 200

target: T4, VHX (Homo sapiens, UniProt Q9NRW4); assay: PTP inhibition assay (pNPP); assay type: biochemical; conditions: IC50 VHX (second VHX line of Table 15), pNPP at Km, pH 7.0, 25° C.
T4 sequence (Q9NRW4 1-184): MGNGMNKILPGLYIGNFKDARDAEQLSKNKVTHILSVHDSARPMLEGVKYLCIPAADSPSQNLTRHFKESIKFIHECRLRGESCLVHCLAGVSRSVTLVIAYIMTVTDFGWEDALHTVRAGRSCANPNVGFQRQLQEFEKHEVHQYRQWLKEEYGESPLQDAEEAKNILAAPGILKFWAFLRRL

Compound	IC50 [µM]
Cc1c(Br)cc(NC(=O)CS(=O)(=O)O)cc1Br	> 100

same assay, conditions: IC50 VHX, pNPP at Km, pH 7.0, 25° C.

Compound	IC50 [µM]
Cc1c(Br)cc(NC(=O)CS(=O)(=O)O)cc1Br	> 100

same assay, conditions: pNPP at Km, pH 7.0, 25° C.; read-out: IC50 VHX

Compound	IC50 [µM]
O=C(CS(=O)(=O)O)Nc1cnc2ccccc2c1	> 100
O=C(C(c1ccccc1)S(=O)(=O)O)N1CCC(Cc2ccccc2)CC1 (stereo not drawn) [Compound L319N46]	> 200
O=C(C(c1ccccc1)S(=O)(=O)O)N1CCC(c2ccc(Cl)c(Cl)c2)CC1 (stereo not drawn) [Compound L319N47]	150
O=C(C(c1ccccc1)S(=O)(=O)O)N1CCCC2CCCCC21 (stereo not drawn) [Compound L319N53]	> 200

same assay, conditions: pNPP at Km, pH 7.0, 25° C.; read-out: IC50 VHX (second VHX line of Table 15)

Compound	IC50 [µM]
O=C(CS(=O)(=O)O)Nc1cnc2ccccc2c1	> 100

target: T5, VHZ (Homo sapiens, UniProt Q9BVJ7); assay: PTP inhibition assay (pNPP); assay type: biochemical; conditions: not given
T5 sequence (Q9BVJ7 1-150): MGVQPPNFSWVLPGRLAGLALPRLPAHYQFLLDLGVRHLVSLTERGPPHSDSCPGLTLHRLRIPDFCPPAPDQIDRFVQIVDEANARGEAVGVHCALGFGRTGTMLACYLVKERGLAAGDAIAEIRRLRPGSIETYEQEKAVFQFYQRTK

Compound	IC50 [µM]
O=C(C(c1ccccc1)S(=O)(=O)O)N1CCC(Cc2ccccc2)CC1 (stereo not drawn) [Compound L319N46]	> 200
O=C(C(c1ccccc1)S(=O)(=O)O)N1CCC(c2ccc(Cl)c(Cl)c2)CC1 (stereo not drawn) [Compound L319N47]	80
O=C(C(c1ccccc1)S(=O)(=O)O)N1CCCC2CCCCC21 (stereo not drawn) [Compound L319N53]	> 200

target: T6, CDC14A (Homo sapiens, UniProt Q9UNH5); assay: PTP inhibition assay (pNPP); assay type: biochemical; conditions: not given
T6 sequence (Q9UNH5 1-594): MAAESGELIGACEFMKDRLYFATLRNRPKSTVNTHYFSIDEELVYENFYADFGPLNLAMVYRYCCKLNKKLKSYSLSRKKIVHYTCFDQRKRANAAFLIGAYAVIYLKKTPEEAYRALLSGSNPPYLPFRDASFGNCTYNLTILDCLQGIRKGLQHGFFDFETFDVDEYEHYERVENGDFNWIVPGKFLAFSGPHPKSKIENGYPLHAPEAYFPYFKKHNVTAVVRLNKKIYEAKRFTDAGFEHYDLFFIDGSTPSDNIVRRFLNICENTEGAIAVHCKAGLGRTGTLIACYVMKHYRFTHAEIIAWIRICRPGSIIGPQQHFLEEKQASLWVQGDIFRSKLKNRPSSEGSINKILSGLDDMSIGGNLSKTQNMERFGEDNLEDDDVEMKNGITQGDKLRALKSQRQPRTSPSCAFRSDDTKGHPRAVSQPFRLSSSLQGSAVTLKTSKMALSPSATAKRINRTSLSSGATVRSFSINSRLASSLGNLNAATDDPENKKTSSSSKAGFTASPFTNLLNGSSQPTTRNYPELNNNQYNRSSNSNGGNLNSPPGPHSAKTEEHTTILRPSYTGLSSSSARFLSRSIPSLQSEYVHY

Compound	IC50 [µM]
Cc1c(Br)cc(NC(=O)CS(=O)(=O)O)cc1Br	> 100
O=C(CS(=O)(=O)O)Nc1cnc2ccccc2c1	> 100
O=C(C(c1ccccc1)S(=O)(=O)O)N1CCC(Cc2ccccc2)CC1 (stereo not drawn) [Compound L319N46]	> 200
O=C(C(c1ccccc1)S(=O)(=O)O)N1CCC(c2ccc(Cl)c(Cl)c2)CC1 (stereo not drawn) [Compound L319N47]	> 200
O=C(C(c1ccccc1)S(=O)(=O)O)N1CCCC2CCCCC21 (stereo not drawn) [Compound L319N53]	> 200

tested on: M. tuberculosis H37Rv; assay: Microplate Alamar Blue assay (MABA) MIC; assay type: cell-based, Mycobacterium tuberculosis; conditions: not given

Compound	Activity in standard MIC assay
Cc1c(Br)cc(NC(=O)CS(=O)(=O)O)cc1Br	devoid of activity

same assay, conditions: Mycobacterium tuberculosis, H37RV; minimum inhibitory concentration; read-out: In vitro anti-Mtb activity MABA-MIC H37Rv

Compound	MIC [µM]
Cc1c(Br)cc(NC(=O)CS(=O)(=O)O)cc1Br	> 10

tested on: not listed separately; assay: Water solubility; assay type: physicochemical; conditions: not given

Compound	solubility [µg/mL]
O=C(C(c1ccccc1)S(=O)(=O)O)N1CCC(Cc2ccccc2)CC1 (stereo not drawn) [Compound L319N46]	> 10000
O=C(C(c1ccccc1)S(=O)(=O)O)N1CCC(c2ccc(Cl)c(Cl)c2)CC1 (stereo not drawn) [Compound L319N47]	> 10000
O=C(C(c1ccccc1)S(=O)(=O)O)N1CCCC2CCCCC21 (stereo not drawn) [Compound L319N53]	> 10000

target: PTPμ (Homo sapiens, UniProt P28827); assay: PTP inhibition assay (pNPP); conditions: not given
Sequence (P28827 21-1452): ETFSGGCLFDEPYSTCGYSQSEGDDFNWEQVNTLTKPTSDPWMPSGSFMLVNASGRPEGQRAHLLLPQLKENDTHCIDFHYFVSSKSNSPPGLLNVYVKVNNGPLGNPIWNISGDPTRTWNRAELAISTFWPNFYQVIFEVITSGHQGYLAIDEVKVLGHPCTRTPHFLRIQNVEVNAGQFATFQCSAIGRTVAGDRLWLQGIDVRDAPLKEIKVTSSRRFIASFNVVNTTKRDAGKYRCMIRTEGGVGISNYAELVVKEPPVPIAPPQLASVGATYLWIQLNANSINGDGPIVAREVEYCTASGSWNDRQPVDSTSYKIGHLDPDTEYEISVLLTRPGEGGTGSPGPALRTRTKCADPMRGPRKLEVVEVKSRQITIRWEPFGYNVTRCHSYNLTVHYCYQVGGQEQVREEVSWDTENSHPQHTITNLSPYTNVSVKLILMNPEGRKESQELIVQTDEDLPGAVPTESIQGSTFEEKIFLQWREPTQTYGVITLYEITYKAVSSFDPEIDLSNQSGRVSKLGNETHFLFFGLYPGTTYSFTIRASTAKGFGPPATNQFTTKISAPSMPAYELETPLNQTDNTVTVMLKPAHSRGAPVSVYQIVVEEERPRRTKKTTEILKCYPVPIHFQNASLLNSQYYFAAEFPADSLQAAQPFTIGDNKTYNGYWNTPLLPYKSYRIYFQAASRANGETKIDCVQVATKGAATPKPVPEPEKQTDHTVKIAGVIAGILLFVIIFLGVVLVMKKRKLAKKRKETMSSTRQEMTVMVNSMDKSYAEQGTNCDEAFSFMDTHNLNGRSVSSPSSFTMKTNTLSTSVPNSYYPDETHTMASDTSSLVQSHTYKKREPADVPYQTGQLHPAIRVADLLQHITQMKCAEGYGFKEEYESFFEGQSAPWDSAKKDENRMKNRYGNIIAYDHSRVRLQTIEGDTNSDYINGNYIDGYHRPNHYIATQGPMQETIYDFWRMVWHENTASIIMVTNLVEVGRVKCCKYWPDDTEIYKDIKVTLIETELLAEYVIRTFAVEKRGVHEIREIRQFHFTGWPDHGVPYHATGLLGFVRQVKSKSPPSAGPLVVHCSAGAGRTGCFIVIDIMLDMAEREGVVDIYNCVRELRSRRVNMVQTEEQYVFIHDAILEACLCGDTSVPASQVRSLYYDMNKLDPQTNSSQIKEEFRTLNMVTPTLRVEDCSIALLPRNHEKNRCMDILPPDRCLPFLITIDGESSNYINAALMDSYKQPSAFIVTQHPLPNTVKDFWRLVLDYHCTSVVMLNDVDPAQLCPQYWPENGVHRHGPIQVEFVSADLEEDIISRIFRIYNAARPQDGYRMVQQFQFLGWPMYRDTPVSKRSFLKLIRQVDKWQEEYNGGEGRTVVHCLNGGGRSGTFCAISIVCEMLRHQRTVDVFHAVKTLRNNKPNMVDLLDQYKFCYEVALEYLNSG

Compound	IC50 [µM]
Cc1c(Br)cc(NC(=O)CS(=O)(=O)O)cc1Br	> 100
O=C(CS(=O)(=O)O)Nc1cnc2ccccc2c1	> 100
O=C(C(c1ccccc1)S(=O)(=O)O)N1CCC(Cc2ccccc2)CC1 (stereo not drawn) [Compound L319N46]	> 200
O=C(C(c1ccccc1)S(=O)(=O)O)N1CCC(c2ccc(Cl)c(Cl)c2)CC1 (stereo not drawn) [Compound L319N47]	> 200
O=C(C(c1ccccc1)S(=O)(=O)O)N1CCCC2CCCCC21 (stereo not drawn) [Compound L319N53]	> 200
